{"source": "paper PMC10590383", "about": "“Repurposing conformational changes in ANL superfamily enzymes to rapidly generate biosensors for organic and amino acids” (Nature Communications, 2023)", "test_in_all_cases": "Fluorescence dose-response of purified binding-pocket-engineered sensors (0.75 uM) in 100 mM Tris-HCl pH 7.5, room temperature, 1 mM ATP, 2.5 mM MgCl2, excitation 460 or 480 nm, emission 510 nm; logistic five-parameter fit.", "assay_type_in_all_cases": "biochemical", "conditions_in_all_cases": "n = 3", "key": {"[1]": {"biological_target": "T1, GECFINDER-Leu1 (Aneurinibacillus migulanus, UniProt P0C061, A301G/T278M)", "T1 construct": "gene grsA; GrsA-PheA-PCP", "T1 sequence (P0C061 1-617 T278M/A301G)": "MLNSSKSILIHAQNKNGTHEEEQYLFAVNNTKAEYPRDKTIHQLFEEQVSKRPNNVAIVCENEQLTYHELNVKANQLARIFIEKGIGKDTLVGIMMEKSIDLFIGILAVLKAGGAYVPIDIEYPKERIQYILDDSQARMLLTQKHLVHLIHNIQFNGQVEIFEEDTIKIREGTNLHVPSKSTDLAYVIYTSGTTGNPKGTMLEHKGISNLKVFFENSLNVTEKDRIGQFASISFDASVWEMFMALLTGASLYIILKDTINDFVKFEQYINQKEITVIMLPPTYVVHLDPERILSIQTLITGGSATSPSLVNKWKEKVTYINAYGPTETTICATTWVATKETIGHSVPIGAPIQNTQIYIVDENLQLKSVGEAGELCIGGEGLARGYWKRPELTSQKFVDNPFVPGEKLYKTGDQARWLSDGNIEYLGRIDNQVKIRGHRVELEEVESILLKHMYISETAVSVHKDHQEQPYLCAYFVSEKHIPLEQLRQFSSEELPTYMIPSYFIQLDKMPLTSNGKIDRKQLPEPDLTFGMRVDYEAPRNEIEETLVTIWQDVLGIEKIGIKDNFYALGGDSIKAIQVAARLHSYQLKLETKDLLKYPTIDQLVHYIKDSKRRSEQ", "protocol": "(§1) Fig. 4 Engineering ligand specificity of GrsA-PheA for generating […]s. a The selectivity-conferring code of Phe and Leu A domains. b–f Dose–response curve of purified […]s with increasing concentrations of ligands in 100 mM Tris-HCl buffer (pH=7.5). All data shown are means ± S.D. (n = 3 biologically independent samples). g A series of […] reactions was tested to show the […]’s specificity with 20 proteinogenic amino acids. The values on the heatmap represent the ΔF/F0 value normalized to each […]’s maximal ΔF/F0 value ((ΔF/F0)/maximal ΔF/F0). The concentrations of 20 amino acids were 100 μM. The color indicates the average value of three independent biological replicates after 15 min. All data shown are means ± S.D. (n = 3 biologically independent samples). Source data are provided as a Source data file.\n(§2) The study conducted dose–response curve, substrate specificity, and fluorescent spectrum analyses in 100-mM Tris buffer (pH = 7.5), while pH stability experiments were performed in 100-mM Tris buffer at three different pH values (6.5, 7.5, and 8.5) at room temperature. […] protein at a concentration of 0.75 μM, various small molecule concentrations, 1 mM ATP, and 2.5 mM MgCl2 were used in the experiments. Fluorescent signals were detected using a Microplate Reader (Synergy H4, Bio Tek) at an excitation/emission wavelength of 460 nm/510 nm or 480 nm/510 nm. The dose-response curve was determined immediately after the addition of the analyte. The total duration of the measurement was 15 min, with readings taken at one-minute intervals. The dose-response curve was plotted using the fluorescence values obtained after achieving stability in the fluorescence signal. The dose-response curves were fitted using the logistic model LOGISTIC5 available in Origin 2021, which could provide a more adequate fit to asymmetric dose-response data[62],[63]. Excitation spectra were scanned from 300 to 540 nm with a step size of 5 nm, and the emission wavelength was set to 560 nm. Emission spectra were scanned from 470 to 700 nm with a step size of 5 nm, and the excitation wavelength was set to 450 nm. The thermal stability of […] was analyzed using the UNcle multifunctional protein stability analysis system. Measurements were performed in 20 mM MOPS buffer with 2 mM DTT at a sample concentration of 1 mg/mL. Absolute fluorescence quantum yields were measured using an absolute photoluminescence quantum yield spectrometer (FS5, Edinburgh)."}, "[2]": {"biological_target": "T2, GECFINDER-Leu4 (Aneurinibacillus migulanus, UniProt P0C061, A301G/I277L/S447N/T278L)", "T2 construct": "gene grsA", "T2 sequence (P0C061 1-617 I277L/T278L/A301G/S447N)": "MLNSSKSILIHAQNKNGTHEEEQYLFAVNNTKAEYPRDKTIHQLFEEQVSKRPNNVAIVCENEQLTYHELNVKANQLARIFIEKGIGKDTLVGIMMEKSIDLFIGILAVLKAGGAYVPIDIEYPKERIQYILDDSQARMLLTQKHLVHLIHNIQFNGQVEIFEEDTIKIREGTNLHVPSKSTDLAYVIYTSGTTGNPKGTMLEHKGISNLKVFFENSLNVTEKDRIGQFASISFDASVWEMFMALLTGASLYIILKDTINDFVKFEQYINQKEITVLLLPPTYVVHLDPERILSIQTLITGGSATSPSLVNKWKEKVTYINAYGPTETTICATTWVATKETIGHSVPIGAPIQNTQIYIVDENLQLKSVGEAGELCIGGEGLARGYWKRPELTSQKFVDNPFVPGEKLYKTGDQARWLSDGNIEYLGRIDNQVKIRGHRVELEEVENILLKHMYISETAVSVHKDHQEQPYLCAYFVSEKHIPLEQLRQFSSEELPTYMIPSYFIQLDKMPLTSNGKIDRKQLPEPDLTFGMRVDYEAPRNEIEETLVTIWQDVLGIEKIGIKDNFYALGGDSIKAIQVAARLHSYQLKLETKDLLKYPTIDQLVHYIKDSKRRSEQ", "protocol": "as §1, §2"}, "[3]": {"biological_target": "T3, GECFINDER-Leu3 (Aneurinibacillus migulanus, UniProt P0C061, A301G/S447N/T278L)", "T3 construct": "gene grsA", "T3 sequence (P0C061 1-617 T278L/A301G/S447N)": "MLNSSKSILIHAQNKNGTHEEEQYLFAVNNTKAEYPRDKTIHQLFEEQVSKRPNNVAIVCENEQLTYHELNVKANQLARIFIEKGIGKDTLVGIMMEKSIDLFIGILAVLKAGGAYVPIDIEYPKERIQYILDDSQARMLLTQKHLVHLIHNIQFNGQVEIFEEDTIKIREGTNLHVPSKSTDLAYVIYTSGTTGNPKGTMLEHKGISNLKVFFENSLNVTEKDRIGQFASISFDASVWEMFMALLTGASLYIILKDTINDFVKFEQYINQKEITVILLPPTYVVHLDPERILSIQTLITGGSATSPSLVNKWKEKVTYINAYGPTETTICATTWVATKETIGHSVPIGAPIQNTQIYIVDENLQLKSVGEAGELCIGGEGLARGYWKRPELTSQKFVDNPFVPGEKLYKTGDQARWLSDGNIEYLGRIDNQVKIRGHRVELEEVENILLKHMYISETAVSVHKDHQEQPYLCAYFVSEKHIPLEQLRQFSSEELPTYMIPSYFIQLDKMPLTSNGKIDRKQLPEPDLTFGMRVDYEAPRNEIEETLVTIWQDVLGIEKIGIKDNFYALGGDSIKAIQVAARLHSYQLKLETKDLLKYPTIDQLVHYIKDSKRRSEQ", "protocol": "as §1, §2"}, "[4]": {"biological_target": "T4, GECFINDER-Leu2 (Aneurinibacillus migulanus, UniProt P0C061, A301G/I277L/T278L)", "T4 construct": "gene grsA", "T4 sequence (P0C061 1-617 I277L/T278L/A301G)": "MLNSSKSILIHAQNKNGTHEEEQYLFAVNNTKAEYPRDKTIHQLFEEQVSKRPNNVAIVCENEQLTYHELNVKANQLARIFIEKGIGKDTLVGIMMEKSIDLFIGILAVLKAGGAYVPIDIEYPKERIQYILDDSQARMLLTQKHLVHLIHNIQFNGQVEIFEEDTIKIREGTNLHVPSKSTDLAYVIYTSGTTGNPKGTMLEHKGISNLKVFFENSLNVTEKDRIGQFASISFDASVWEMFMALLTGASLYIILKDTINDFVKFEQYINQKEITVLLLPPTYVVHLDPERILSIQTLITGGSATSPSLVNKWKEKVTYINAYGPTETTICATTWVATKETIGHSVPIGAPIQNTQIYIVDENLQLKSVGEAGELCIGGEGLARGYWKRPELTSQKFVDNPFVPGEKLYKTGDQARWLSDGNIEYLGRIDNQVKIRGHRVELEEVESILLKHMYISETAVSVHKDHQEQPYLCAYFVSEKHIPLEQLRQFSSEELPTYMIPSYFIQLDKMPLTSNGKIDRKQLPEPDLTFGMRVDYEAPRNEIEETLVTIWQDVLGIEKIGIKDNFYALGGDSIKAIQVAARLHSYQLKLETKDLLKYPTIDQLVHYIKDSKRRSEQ", "protocol": "as §1, §2"}}, "data": [{"smiles": "CC(C)C[C@H](N)C(=O)O", "note": "[Leu, leucine]", "values": [{"measurement": "EC50", "setting": "[1]", "value": "58.4 ± 24.8", "unit": "µM"}, {"measurement": "EC50", "setting": "[2]", "value": "106 ± 24.5", "unit": "µM"}, {"measurement": "EC50", "setting": "[3]", "value": "200 ± 7.76", "unit": "µM"}, {"measurement": "EC50", "setting": "[4]", "value": "207 ± 37.2", "unit": "µM"}]}]}
